Results published in patent EP0311473A1, “Fluorinated derivate of amino acids, useful as tensioactive or cotensioactive agents, and preparations for biomedical use containing these derivatives” (AP[…] […] TE[…] ATTA, priority 1987, dated 1989).

Legend:
[1] = Surface tension of aqueous solutions of the fluorinated derivatives; format: physicochemical; conditions: solution in water, 20°C
Protocol: (§1) Pour illustrer le caractère fortement tensioactif des dérivés fluorés de l'invention, on a effectué des mesures à 20°C de la tension superficielle de solutions dans l'eau de ces dérivés, ainsi que de la tension interfaciale entre ces solutions et un composé perfluoré constitué par la perfluorodécaline.
(§2) On précise que dans les conditions de ces mesures: • - la tension superficielle de l'eau à 20°C est de 73,0± 0,2mN.m-^1, et • - la tension interfaciale entre l'eau et la perfluorodécaline à 20°C est de 56,0 ± 0,2 mN.m-^1.

[2] = Interfacial tension between aqueous solutions and perfluorodecalin; format: physicochemical; conditions: solution in water vs perfluorodécaline, 20°C
Protocol: as §1, §2

[3] = tested on: globules rouges humains; assay: Haemolysis test on human red blood cells; format: cell-based
[4] = tested on: souris; assay: Acute toxicity after intravenous administration to mice; format: in vivo
Protocol: Enfin, on a vérifié que les dérivés de l'invention ne présentaient pas de toxicité aigüe. Ainsi, l'administration intraveineuse à des souris, de 20 ml/kg des solutions à : • - 100 mg/I de (F-butyl-2')éthylbétaïne (ex. 4), • - 100 mg/l de (F-hexyl-2')éthylbétaïne (ex. 5), • - 100 mg/I de (F-octyl-2')éthylbétaïne (ex. 6), et • - 500 mg/I de (F-octyl-3"propylcarbamoyl)-4'butylbétaïne (ex. 14), dans de l'eau à 9 pour mille de NaCl, a été bien tolérée.

[5] = tested on: cultures cellulaires lymphoblastoïdes de la souche Namalva; assay: Biocompatibility on lymphoblastoid cell cultures (growth, multiplication, subculturing); format: cell-based
Description: Pour tester la biocompatibilité des dérivés de l'invention, on a vérifié que ces dérivés n'avaient pas d'effet sur la croissance, la multiplication et le repiquage de cultures cellulaires lymphoblastoïdes de la souche Namalva.

[6] = solution 5 g/l in water with 9 per mille NaCl
[7] = 20 ml/kg of a 100 mg/l solution in water with 9 per mille NaCl
[8] = solution 1 g/l in water with 9 per mille NaCl
[9] = solution 500 mg/l in water with 9 per mille NaCl

SMILES	Tension superficielle ([1]; concentration 1 g/l)	Tension interfaciale/ F-décaline ([2]; concentration 1 g/l)	hémolyse des globules rouges humains [3, 6]	toxicité aigüe (tolérance) [4, 7]	Tension superficielle ([1]; concentration 0,1 g/l)	croissance, multiplication et repiquage des cultures [5, 8]	Tension interfaciale/ F-décaline ([2]; concentration 0,1 g/l)	hémolyse des globules rouges humains [3, 8]	Tension superficielle ([1]; concentration 0,01 g/l)	Tension interfaciale/ F-décaline ([2]; concentration 0,01 g/l)	hémolyse des globules rouges humains [3, 9]	toxicité aigüe (tolérance) ([4]; 20 ml/kg of a 500 mg/l solution in water with 9 per mille NaCl)	croissance, multiplication et repiquage des cultures [5, 9]
C[C@H](CCC(=O)NC(CCC(F)(F)C(F)(F)C(F)(F)C(F)(F)C(F)(F)C(F)(F)F)C(=O)O)[C@H]1CC[C@H]2[C@@H]3[C@H](O)C[C@@H]4C[C@H](O)CC[C@]4(C)[C@H]3C[C@H](O)[C@]12C (some centres unmarked)	28,5 mN.m^-1	4,7 mN.m^-1											
C[N+](C)(C)C(CCC(F)(F)C(F)(F)C(F)(F)C(F)(F)F)C(=O)[O-] (centres unmarked) [(F-butyl-2')éthyl bétaïne de l'Ex. 4, F-(butyl-2')éthyl bétaïne]	49,3 mN.m^-1	34,5 mN.m^-1	ne provoquent pas l'hémolyse	bien tolérée	68,4 mN.m^-1	ne perturbent pas la croissance, la multiplication et le repiquage de ces cultures	48,0 mN.m^-1						
C[N+](C)(C)C(CCC(F)(F)C(F)(F)C(F)(F)C(F)(F)C(F)(F)C(F)(F)F)C(=O)[O-] (centres unmarked) [(F-hexyl-2')éthyl bétaïne de l'Ex. 5, (F-hexyl-2')éthyl bétaïne]	20,0 mN.m^-1	3,1 mN.m^-1	ne provoquent pas l'hémolyse	bien tolérée	39,3 mN.m^-1	ne perturbent pas la croissance, la multiplication et le repiquage de ces cultures	22,4 mN.m^-1						
C[N+](C)(C)C(CCC(F)(F)C(F)(F)C(F)(F)C(F)(F)C(F)(F)C(F)(F)C(F)(F)C(F)(F)F)C(=O)[O-] (centres unmarked) [(F-octyl-2')éthyl bétaïne de l'Ex. 6, (F-octyl-2')éthyl bétaïne]	19,1 mN.m^-1	2,8 mN.m^-1		bien tolérée	19,9 mN.m^-1	ne perturbent pas la croissance, la multiplication et le repiquage de ces cultures	3,4 mN.m^-1	ne provoquent pas l'hémolyse	25,6 mN.m^-1	7,5 mN.m^-1			
O=C(O)CNC(=O)CCC(F)(F)C(F)(F)C(F)(F)C(F)(F)C(F)(F)C(F)(F)C(F)(F)C(F)(F)F [(F-octyl-3' propylcarbamoyl) éthanoate de sodium]	21,6 mN.m^-1	7,1 mN.m^-1			38,8 mN.m^-1		25,2 mN.m^-1		43,2 mN.m^-1	41,3 mN.m^-1			
C[N+](C)(C)C(CCCCNC(=O)CCC(F)(F)C(F)(F)C(F)(F)C(F)(F)C(F)(F)C(F)(F)C(F)(F)C(F)(F)F)C(=O)[O-] (centres unmarked) [(triméthylammonio)-2 [(F-octyl)-3' propanoylamino] -6 hexanoate]					19,7 mN.m^-1		3,6 mN.m^-1		22,8 mN.m^-1	5,2 mN.m^-1	ne provoquent pas l'hémolyse	bien tolérée	ne perturbent pas la croissance, la multiplication et le repiquage de ces cultures
